Tested on: AGS cells (KRAS^G12D)
Experiment: Detection of cell proliferation in vitro by MTT/MTS method (cell activity experiment)
Format: cell-based
Conditions: Homo sapiens, AGS, 72 h, AGS cells; MTT/MTS; 3 days of drug treatment; read-out: AGS IC50
Outline: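 After 3-day compound exposure (final DMSO 0.5%), viability of AGS (KRAS G12D) cells, plated 1000/well one day before dosing, was measured at 490 nm following 4 h MTT or MTS incubation. IC50 was fitted from dose–effect curves relative to DMSO-treated wells.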

Row | SMILES | IC50
1 | N#Cc1c(OC[C@@]23CCCN2C[C@H](F)C3)nc2c(F)c(-c3cc(O)cc4cccc(F)c34)ncc2c1N1C[C@H]2CC[C@@H](C1)N2 [Example 194, 4-((1R,5S)-3,8-diazabicyclo[3.2.1]octan-3-yl)-8-fluoro-7-(8-fluoro-3-hydroxynaphthalen-1-yl)-2-(((2R,7aS)-2-fluorotetrahydro-1H-pyrrolizin-7a(5H)-yl)methoxy)-1,6-naphthyridine-3-carbonitrile] | 150 nM
2 | Oc1cc(-c2ccc3c(N4C[C@H]5CC[C@@H](C4)N5)nc(OC[C@@]45CCCN4C[C@H](F)C5)nc3c2F)c2c(F)cccc2c1 [Example 95, 4-(4-((1R,5S)-3,8-diazabicyclo[3.2.1]octan-3-yl)-8-fluoro-2-(((2R,7aS)-2-fluorotetrahydro-1H-pyrrolizin-7a(5H)-yl)methoxy)quinazolin-7-yl)-5-fluoronaphthalen-2-ol] | 13.5 nM
3 | Oc1cc2c(c(-c3ncc4c(N5C[C@H]6CC[C@@H](C5)N6)nc(OC[C@@]56CCCN5C[C@H](F)C6)nc4c3F)c1)CCCC2 [Example 271, 4-(4-((1R,5S)-3,8-diazabicyclo[3.2.1]octan-3-yl)-8-fluoro-2-(((2R,7aS)-2-fluorotetrahydro-1H-pyrrolizin-7a(5H)-yl)methoxy)pyrido[4,3-d]pyrimidin-7-yl)-5,6,7,8-tetrahydronaphthalen-2-ol] | 11 nM
4 | CCc1ccc2cc(O)cc(-c3c4c(c5c(N6C[C@H]7CC[C@@H](C6)N7)nc(OC[C@@]67CCCN6C[C@H](F)C7)nc5c3F)OCO4)n12 [Example 397, 5-(9-((1R,5S)-3,8-diazabicyclo[3.2.1]octan-3-yl)-5-fluoro-7-(((2R,7aS)-2-fluorotetrahydro-1H-pyrrolizin-7a(5H)-yl)methoxy)-[1,3]dioxolo[4,5-f]quinazolin-4-yl)-3-ethylindolizin-7-ol] | 70 nM
5 | CC1CCc2cc(O)cc(-c3ccc4c(N5C[C@H]6CC[C@@H](C5)N6)nc(OC[C@@]56CCCN5C[C@H](F)C6)nc4c3F)c21 (stereo partly drawn) [Example 286, 7-(4-((1R,5S)-3,8-diazabicyclo[3.2.1]octan-3-yl)-8-fluoro-2-(((2R,7aS)-2-fluorotetrahydro-1H-pyrrolizin-7a(5H)-yl)methoxy)quinazolin-7-yl)-1-methyl-2,3-dihydro-1H-inden-5-ol] | 29 nM
6 | CC[C@H]1CCCc2cc(O)cc(-c3ncc4c(N5CC6CCC(C5)N6)nc(OC[C@@]56CCCN5C[C@H](F)C6)nc4c3F)c21 (single isomer, unassigned) [Example 229, (S)-4-(4-((1R,5S)-3,8-diazabicyclo[3.2.1]octan-3-yl)-8-fluoro-2-(((2R,7aS)-2-fluorotetrahydro-1H-pyrrolizin-7a(5H)-yl)methoxy)pyrido[4,3-d]pyrimidin-7-yl)-5-ethyl-5,6,7,8-tetrahydronaphthalen-2-ol or (R)-4-(4-((1R,5S)-3,8-diazabicyclo[3.2.1]octan-3-yl)-8-fluoro-2-(((2R,7aS)-2-fluorotetrahydro-1H-pyrrolizin-7a(5H)-yl)methoxy)pyrido[4,3-d]pyrimidin-7-yl)-5-ethyl-5,6,7,8-tetrahydronaphthalen-2-ol] | 2.5 nM
7 | C#Cc1cccc2cc(O)cc(-c3ncc4c(N5C[C@H]6CC[C@@H](C5)O6)nc(OC[C@@]56CCCN5C[C@H](F)C6)nc4c3F)c12 [Example 11, 4-(4-((1R,5S)-8-oxa-3-azabicyclo[3.2.1]octan-3-yl)-8-fluoro-2-(((2R,7aS)-2-fluorotetrahydro-1H-pyrrolizin-7a(5H)-yl)methoxy)pyrido[4,3-d]pyrimidin-7-yl)-5-ethynylnaphthalen-2-ol] | 390 nM
8 | Oc1cc2c(c(-c3ncc4c(N5C[C@H]6CC[C@@H](C5)N6)nc(OC[C@@]56CCCN5C[C@H](F)C6)nc4c3F)c1)C(CC(F)(F)F)CC2 (stereo partly drawn) [Example 257, 7-(4-((1R,5S)-3,8-diazabicyclo[3.2.1]octan-3-yl)-8-fluoro-2-(((2R,7aS)-2-fluorotetrahydro-1H-pyrrolizin-7a(5H)-yl)methoxy)pyrido[4,3-d]pyrimidin-7-yl)-1-(2,2,2-trifluoroethyl)-2,3-dihydro-1H-inden-5-ol] | 1850 nM
9 | [O-][S+]1CCCc2cc(O)cc(-c3ncc4c(N5C[C@H]6CC[C@@H](C5)N6)nc(OC[C@@]56CCCN5C[C@H](F)C6)nc4c3F)c21 (stereo partly drawn) [Example 251, 8-(4-((1R,5S)-3,8-diazabicyclo[3.2.1]octan-3-yl)-8-fluoro-2-(((2R,7aS)-2-fluorotetrahydro-1H-pyrrolizin-7a(5H)-yl)methoxy)pyrido[4,3-d]pyrimidin-7-yl)-6-hydroxythiochromane 1-oxide] | > 2500 nM
10 | C#Cc1c(F)ccc2cc(O)cc(-c3ccc4c(N5C[C@H]6CC[C@@H](C5)N6)nc(OC[C@@]56CCCN5C[C@H](F)C6)nc4c3O)c12 [Example 328, 4-((1R,5S)-3,8-diazabicyclo[3.2.1]octan-3-yl)-7-(8-ethynyl-7-fluoro-3-hydroxynaphthalen-1-yl)-2-(((2R,7aS)-2-fluorotetrahydro-1H-pyrrolizin-7a(5H)-yl)methoxy)quinazolin-8-ol] | 8910 nM
11 | N#Cc1c(OC[C@@]23CCCN2C[C@H](F)C3)nc2cc(-c3cccc4ccc(F)c(Cl)c34)ccc2c1N1C[C@H]2CC[C@@H](C1)N2 [Example 170, 4-((1R,5S)-3,8-diazabicyclo[3.2.1]octan-3-yl)-7-(8-chloro-7-fluoronaphthalen-1-yl)-2-(((2R,7aS)-2-fluorotetrahydro-1H-pyrrolizin-7a(5H)-yl)methoxy)quinoline-3-carbonitrile] | 1040 nM
12 | CCc1c(F)ccc2cc(O)cc(N3CCc4c(nc(OC[C@]56CCCN5[C@@H](COC(=O)N(C)C)CC6)nc4N4C[C@H]5CC[C@@H](C4)N5)C3)c12 [Example 210, ((3R,7aR)-7a-(((4-((1R,5S)-3,8-diazabicyclo[3.2.1]octan-3-yl)-7-(8-ethyl-7-fluoro-3-hydroxynaphthalen-1-yl)-5,6,7,8-tetrahydropyrido[3,4-d]pyrimidin-2-yl)oxy)methyl)hexahydro-1H-pyrrolizin-3-yl)methyl dimethylcarbamate] | 65 nM
13 | CCc1c(F)ccc2cc(O)cc(-c3ccc4c(N5C[C@H]6CC[C@@H](C5)N6)nc(OC[C@]56CCCN5[C@@H](COC(=O)N(C)C)CC6)nc4n3)c12 [Example 146, ((3R,7aR)-7a-(((4-((1R, 5S)-3,8-diazabicyclo [3.2.1]octan-3-yl)-7-(8-ethyl-7-fluoro-3-hydroxynaphthalen-1-yl)pyrido[2,3-d]pyrimidin-2-yl)oxy)methyl)hexahydro-1H-pyrrolizin-3-yl)methyl dimethylcarbamate] | > 2500 nM
14 | C#Cc1cccc2cc(O)cc(-c3ccc4c(N5C[C@H]6CC[C@@H](C5)N6)c(C(F)(F)F)c(OC[C@@]56CCCN5C[C@H](F)C6)nc4c3)c12 [Example 184, 4-(4-((1R,5S)-3,8-diazabicyclo[3.2.1]octan-3-yl)-2-(((2R,7aS)-2-fluorotetrahydro-1H-pyrrolizin-7a(5H)-yl)methoxy)-3-(trifluoromethyl)quinolin-7-yl)-5-ethynylnaphthalen-2-ol] | > 2500 nM
15 | Oc1cc2c(c(-c3ncc4c(N5C[C@H]6CC[C@@H](C5)N6)nc(OC[C@@]56CCCN5C[C@H](F)C6)nc4c3F)c1)C(C1CC1)CC2 (stereo partly drawn) [Example 267, 7-(4-((1R,5S)-3,8-diazabicyclo[3.2.1]octan-3-yl)-8-fluoro-2-(((2R,7aS)-2-fluorotetrahydro-1H-pyrrolizin-7a(5H)-yl)methoxy)pyrido[4,3-d]pyrimidin-7-yl)-1-cyclopropyl-2,3-dihydro-1H-inden-5-ol] | 1050 nM
16 | Cc1cc(N)nc(-c2ncc3c(N4C[C@H]5CC[C@@H](C4)N5)nc(OC[C@@]45CCCN4C[C@H](F)C5)nc3c2F)c1C(F)(F)F [Example 41, 6-(4-((1R,5S)-3,8-diazabicyclo[3.2.1]octan-3-yl)-8-fluoro-2-(((2R,7aS)-2-fluorotetrahydro-1H-pyrrolizin-7a(5H)-yl)methoxy)pyrido[4,3-d]pyrimidin-7-yl)-4-methyl-5-(trifluoromethyl) pyridin-2-amine] | > 2500 nM
17 | C#Cc1cccc2cc(O)cc(-c3ncc4c(N5C[C@H]6CC[C@@H](C5)N6)c(C#N)c(OC[C@@]56CCCN5C[C@H](F)C6)nc4c3F)c12 [Example 189, 4-((1R,5S)-3,8-diazabicyclo[3.2.1]octan-3-yl)-7-(8-ethynyl-3-hydroxynaphthalen-1-yl)-8-fluoro-2-(((2R,7aS)-2-fluorotetrahydro-1H-pyrrolizin-7a(5H)-yl)methoxy)-1,6-naphthyridine-3-carbonitrile] | 152 nM
18 | CCc1c(F)ccc2cc(O)cc(-c3ncc4c(N5CC6CCC(C5)C6F)nc(OC[C@@]56CCCN5C[C@H](F)C6)nc4c3F)c12 (stereo partly drawn) [Example 35, 5-ethyl-6-fluoro-4-(8-fluoro-4-((1R,5S,8R)-8-fluoro-3-azabicyclo [3.2.1]octan-3-yl)-2-(((2R,7aS)-- fluorotetrahydro-1H-pyrrolizin-7a(5H)-yl)methoxy)pyrido[4,3-d]pyrimidin-7-yl) naphthalen-2-ol] | > 2500 nM
19 | Cc1cc(N)nc(-c2ccc3c(N4C[C@H]5CC[C@@H](C4)N5)nc(OC[C@@]45CCCN4C[C@H](F)C5)nc3c2F)c1C1CC1 [Example 139, 6-(4-((1R,5S)-3,8-diazabicyclo[3.2.1]octan-3-yl)-8-fluoro-2-(((2R,7aS)-2-fluorotetrahydro-1H-pyrrolizin-7a(5H)-yl)methoxy)quinazolin-7-yl)-5-cyclopropyl-4-methylpyridin-2-amine] | > 2500 nM
20 | C#Cc1c(F)ccc2cc(O)cc(-c3ncc4c(N5CC6CCC(C5)C6S(C)(=O)=O)nc(OC[C@@]56CCCN5C[C@H](F)C6)nc4c3F)c12 (stereo partly drawn) [Example 66, 5-ethynyl-6-fluoro-4-(8-fluoro-2-(((2R,7aS)-2-fluorotetrahydro-1H-pyrrolizin-7a(5H)-yl)methoxy)-4-((1R,5S, 8R)-8-(methylsulfonyl)-3-azabicyclo[3.2.1]octan-3-yl)pyrido[4,3-d]pyrimidin-7-yl) naphthalen-2-ol] | > 10000 nM
